Experimental data published in US7807713B2, “Pan-antagonists for the androgen receptor and androgen associated with anti-androgen withdrawal” (University of Delaware, priority 2006, dated 2010).
Numbering of substitutions follows the chain as printed. Like-named read-outs stand apart in the source and are kept apart here.

Legend:
Format in all cases: cell-based
[1] = system: LNCaP cells; experiment: Cell proliferation assay (CyQuant), R1881 induced; conditions: 8 day ligand treatment ± R1881, FIG. 9
Excerpt: FIG. 9. LNCaP cell proliferation (CyQuant) after 8 day ligand treatment±R1881. Relative Fluorescence±SEM. (R1881±ligand; P<0.05, one-way ANOVA).
Further evidence that formulae such as PLM1 can act to limit androgen dependent proliferation of prostate cells was obtained by cell proliferation assays as determined using CyQuant® assays, according to manufacturer's instructions (invitrogen).

[2] = biological target: T1, hAR(W741C) (Homo sapiens, UniProt P10275, W742C); experiment: Transcription assay (ARE-luciferase reporter, CV-1 cells), mutant androgen receptor W741C
T1 construct: expressed in transfected cells; host or cells: CV-1
T1 sequence (P10275 1-920 W742C): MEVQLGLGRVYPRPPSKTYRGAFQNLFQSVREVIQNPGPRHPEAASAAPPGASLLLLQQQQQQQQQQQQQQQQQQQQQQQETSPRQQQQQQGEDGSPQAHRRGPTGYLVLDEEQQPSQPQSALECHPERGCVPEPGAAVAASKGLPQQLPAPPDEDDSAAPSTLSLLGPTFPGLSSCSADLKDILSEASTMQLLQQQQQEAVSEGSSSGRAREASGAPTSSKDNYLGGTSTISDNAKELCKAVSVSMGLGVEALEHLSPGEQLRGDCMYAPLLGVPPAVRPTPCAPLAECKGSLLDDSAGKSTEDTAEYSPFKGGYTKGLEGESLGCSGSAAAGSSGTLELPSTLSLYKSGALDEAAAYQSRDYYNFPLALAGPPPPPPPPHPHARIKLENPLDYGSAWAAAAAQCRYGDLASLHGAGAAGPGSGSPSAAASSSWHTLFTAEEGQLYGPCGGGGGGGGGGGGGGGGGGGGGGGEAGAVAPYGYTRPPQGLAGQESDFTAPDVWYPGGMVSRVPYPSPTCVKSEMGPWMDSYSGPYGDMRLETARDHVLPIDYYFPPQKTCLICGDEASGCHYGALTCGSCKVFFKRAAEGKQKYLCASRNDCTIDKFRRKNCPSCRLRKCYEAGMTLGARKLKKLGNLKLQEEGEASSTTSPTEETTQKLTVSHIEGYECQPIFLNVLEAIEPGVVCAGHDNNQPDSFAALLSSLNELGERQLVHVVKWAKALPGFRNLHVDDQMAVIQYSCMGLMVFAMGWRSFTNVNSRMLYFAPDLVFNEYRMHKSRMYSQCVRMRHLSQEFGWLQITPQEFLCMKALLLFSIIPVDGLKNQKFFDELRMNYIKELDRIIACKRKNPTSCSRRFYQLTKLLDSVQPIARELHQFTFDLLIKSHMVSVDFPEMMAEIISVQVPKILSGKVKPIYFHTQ
Protocol: (§1) Twenty-four hours prior to transfection, CV-1 cells were seeded at a density of 45,000 cells per well in 24-well cell culture plates and grown in phenol red free Dulbecco's Modified Eagle Medium (DMEM) supplemented with 10% cosmic calf serum (CCS). ARE-luciferase reporter and Renilla-Luc as the internal standard and a […] expression vector encoding the wild-type androgen receptor or mutant androgen receptor were transfected with Lipofectamine (Invitrogen) following manufacturer's protocol. Five hours after transfection, media was added containing the appropriate concentrations of ligands. The cells were allowed to incubate for 38 hours before harvesting by passive lysis buffer. Cell extracts were immediately assayed using the Dual Luciferase Assay (Promega).

[3] = biological target: T2, hAR(T877A) (Homo sapiens, UniProt P10275, T878A); experiment: Transcription assay (ARE-luciferase reporter, CV-1 cells), mutant androgen receptor T877A
T2 construct: expressed in transfected cells; host or cells: CV-1
T2 sequence (P10275 1-920 T878A): T1 sequence (P10275 1-920 W742C) with C742W, T878A
Protocol: as §1

[4] = biological target: T3, hAR(wt) (Homo sapiens, UniProt P10275); experiment: Transcription assay (ARE-luciferase reporter, CV-1 cells), wild-type androgen receptor
T3 construct: expressed in transfected cells; host or cells: CV-1
T3 sequence (P10275 1-920): T1 sequence (P10275 1-920 W742C) with C742W
Protocol: as §1

Compound: CC(O)(CS(=O)(=O)c1cccc2ccccc12)C(=O)Nc1ccc(C#N)c(C(F)(F)F)c1 (stereo not drawn) [PLM1, N-(4-cyano-3-(trifluoromethyl)phenyl)-2-hydroxy-2-methyl-3-(naphthalen-1-ylsulfonyl)propanamide]
- inhibiting androgen (R1881) induced proliferation of LNCaP cells [1]: at least as potent as biclutamide itself

Compound: CC(O)(CS(=O)(=O)c1cccc(Cc2ccccc2)c1)C(=O)Nc1ccc(C#N)c(C(F)(F)F)c1 (stereo not drawn) [PLM3, 3-(3-benzylphenylsulfonyl)-N-(4-cyano-3-(trifluoromethyl)phenyl)-2-hydroxy-2-methylpropanamide]
- EC50 [2]: 630 ± 67 nM

Compound: CC(O)(CS(=O)(=O)c1ccccc1Cc1ccccc1O)C(=O)Nc1ccc(C#N)c(C(F)(F)F)c1 (stereo not drawn) [PAN11, N-(4-cyano-3-(trifluoromethyl)phenyl)-2-hydroxy-3-(2-(2-hydroxybenzyl)phenylsulfonyl)-2-methylpropanamide]
- EC50 [3]: 1.9 nM

Compound: CC(O)(CS(=O)(=O)c1ccc(Br)c2ccccc12)C(=O)Nc1ccc(C#N)c(C(F)(F)F)c1 (stereo not drawn) [PLM9, 3-(1-bromonaphthalen-4-ylsulfonyl)-N-(4-cyano-3-(trifluoromethyl)phenyl)-2-hydroxy-2-methylpropanamide]
- EC50 [3]: 426 ± 72 nM

Compound: CC(O)(CS(=O)(=O)c1ccccc1Cc1cccc(O)c1)C(=O)Nc1ccc(C#N)c(C(F)(F)F)c1 (stereo not drawn) [PAN21, N-(4-cyano-3-(trifluoromethyl)phenyl)-2-hydroxy-3-(2-(3-hydroxybenzyl)phenylsulfonyl)-2-methylpropanamide]
- EC50 [4]: 1.8 nM

Compound: 3-(2-phenylphenylsulfonyl)-N-(4-cyano-3-(trifluoromethyl)phenyl)-2-hydroxy-2-methylpropanamide [PLM4]
- EC50 ([2]; half maximal activation of reporter gene expression (agonism), '—' = no effect, read-out: hAR(W741C) EC50): 33 ± 9.8 nM
